Measurements published in patent US20180118707A1, “BETA-NAPHTHOISOFLAVONES, COMPOSITIONS CONTAINING, AND USES OF, SAME” (Thesan Pharmaceuticals, Inc., priority 2015, published 2018).

Test system: HepG2 cells
Assay: MTT cytotoxicity assay in HepG2 cells after EROD
Assay type: cell-based, human
Description: The formation of resorufin is quantified by fluorometry with a fluorescence plate reader. Fluorescence is determined at λex 570 nm and λem 590 nm. The amount of resorufin is calculated from a standard curve generated using 0 to 1 μM resorufin in water at ½ log dilutions. The remaining (i.e. all cells present at the beginning of analysis, since only supernatant is taken to assay EROD) live cells are subsequently utilized for the MIT cytotoxicity assay. MTT is made up in serum-free medium at 5 mg/ml. then added to the cells giving a final concentration of 10% (0.5 mg/ml MTT final) then incubated for 2 h. The medium is carefully removed, then MTT formazan is solubilized by adding 200 μl of DMSO and subsequently mixed on a plate shaker. The absorbance is measured spectra photometrically at 550 nm and background absorbance at 690 nm is subtracted.

## O=c1cc(-c2ccccc2)oc2ccc3ccccc3c12 [D, 3-Phenyl-1H-benzo[f]chromen-1-one, reference compound]
  Toxicity threshold: >50 µM
